Values quoted from earlier work, collected in paper PMC12326358, “Effect of Quantitative Structural Properties and Drug Formulation in Four Cannabinoids (Cannabidiol, Cannabigerol, Cannabichromene, and Cannabinol) on Their Lymphatic Transport after Enteral Administration in Rats” (Molecular Pharmaceutics, 2025).

Assays:
[1] = Beagle dogs, formulation with drug dispersed in small lipid droplets; cited from earlier work
[2] = cited from earlier work
[3] = cited from earlier work; for log P: ref literature

Compound | bioavailability increase [1] [fold] | partitioning into lymph [2] | solubility in long-chain triglycerides [3] [mg/g] | log P [3] | FRL ([2]; drug with prominent first-pass metabolism in the liver, ref literature) [%]
CC(C)(C)c1cc(C(C)(C)C)c(NC(=O)c2c[nH]c3ccccc3c2=O)cc1O [ivacaftor, reference compound] | 7 | – | – | – | –
COc1nc(C(Cl)(Cl)Cl)c(Cl)c(OC)c1Cl [penclomedine] | – | very limited partitioning into lymph | > 50 | > 5 | –
CCCCCCCCCCC(=O)O[C@H]1CC[C@H]2[C@@H]3CCC4=CC(=O)CC[C@]4(C)[C@H]3CC[C@]12C [testosterone undecanoate] | – | – | – | 6.7 | 98.5
